Measured values taken from patent US20230264009A1, “DISINFECTING CAP KIT FOR LUER ACCESS DEVICES” (SterileCare Inc., priority 2022, published 2023).
Counter-ions that a name gives are not always drawn.

Columns and labels:
[1] = tested on: C. albicans ON47; test: Checkerboard titration, FMCI; type: cell-based, Candida albicans
Description: (§1) An assay was made using a minimum inhibitory concentration (MIC) and minimum bactericidal concentration (MBC) and minimum fungicidal concentration (MFC) determination. The MIC was determined by the micro broth dilution method in 96-well plates. Serial two-fold dilutions of tetrasodium EDTA (from 2% to 0.015%), ethanol (from 50% to 0.1%) and chlorhexidine HCl (from 100 µg/mL to 0.025 µg/mL) were prepared in MH broth with a final volume of 90 µL per well. A 10 µL containing 1 × 10^5 bacterial cells or 2 × 10^3 fungal cells were added to each well. The inoculated plates were covered with a lid, sealed with Parafilm, and incubated for 24 h at 37° C. with slight rocking on a tilting platform shaker. After incubation, the optical density at 600 nm (OD 600 ) of the cultures in each well was measured using an xMark™ Microplate Absorbance Spectrophotometer (Bio-Rad). […] MBCs and MFCs were determined by transferring 100 µL from each well with no apparent growth onto appropriate agar plates, followed by incubation for 24 h at 37° C.
(§2) A fourth composition and solution included tetrasodium EDTA with ethanol or chlorhexidine HCl. This fourth composition and solution were created using checkerboard titration methods using micro broth dilution in 96-well microtiter plates. The concentrations of antimicrobials used were based on previously determined MIC values. Briefly, 200 µL of two-fold dilutions of tetrasodium EDTA and ethanol or chlorhexidine HCl were prepared in MH or MH II broth with standardized cell suspension. […] Microtiter plates were incubated at 37° C. for 24 h, and the results were analyzed. Each test was performed in duplicate and included a growth control without adding any antimicrobials.

[2] = tested on: MRSA ON184; test: Checkerboard titration, FMCI; type: cell-based, Staphylococcus aureus
Description: as §1, §2

[3] = tested on: 48-h-old biofilms of bacterial and fungal strains; test: MBEC Assay, 24 h exposure (summary); type: cell-based; details: following 24 h of treatment
Description: A biofilm cultivation cell composition was provided. This fifth composition was created using an MBEC Assay® biofilm inoculator, consisting of a polystyrene lid with 96 downward-protruding pegs and a corresponding base used to grow biofilms. A standardized inoculum was diluted in an appropriate biofilm growth medium to achieve a viable cell count of 1.5 × 10^6 CFU/mL of bacterial cells or […] CFU/mL of fungal cells. Then, 150 µL of this inoculum was transferred into each appropriate well, and the peg lids were inserted into the microtiter plates. The plates were sealed with Parafilm and were incubated at optimum temperature for 48 h with slight rocking for bacteria and shaking at 200 rpm for fungal strains. After incubation, the peg lid was removed from the base and rinsed twice with sterile phosphate-buffered saline (PBS) for 2 min to remove loosely attached non-sessile cells. Before the antimicrobial challenge, the pegs in column 1 (n = 8) were considered the biofilm growth control; these pegs were removed from the lids, placed into 200 µL of recovery medium, and analyzed for starting biofilm cell numbers as described below. […] After the antimicrobial challenge, the pegs were rinsed twice with sterile PBS for 2 min and placed into a new 96-well plate containing 200 µL of recovery medium. The recovery plates were sealed with Parafilm, and biofilm cells were dislodged from the pegs by sonication for 30 min with a Branson 3510 bath sonicator. The biofilm cells in the recovery medium were serially diluted, and a drop dilution assay was performed to enumerate the viable cells. MBEC values were determined as the minimum concentration of antimicrobials that yielded a viable cell count at or lower than the 125 CFU/mL detection limit.

[4] = tested on: E. coli SK2; test: Checkerboard titration, FMCI; type: cell-based, Escherichia coli; details: tetrasodium EDTA + chlorhexidine HCl
Description: as §1, §2

[5] = tested on: E. coli SK2; test: Checkerboard titration, FICI; type: cell-based, Escherichia coli; details: tetrasodium EDTA + chlorhexidine HCl
Description: as §2

[6] = tested on: S. epidermidis SK9; test: Checkerboard titration, FICI; type: cell-based, Staphylococcus epidermidis
Description: as §2

[7] = tested on: 48-h old biofilms of test organisms; test: Rapid biofilm eradication, 2 h exposure; type: cell-based; details: alone at the MBEC
Description: Determining rapid biofilm eradication by tetrasodium EDTA, ethanol, and chlorhexidine HCl alone and in combination was performed. After biofilm formation, control pegs (n = 6) were removed and analyzed to determine the starting biofilm cell numbers via the drop dilution method. The 48-h old biofilms on the pegs were exposed to different concentrations of test antimicrobials, dissolved in an appropriate growth medium, for two h to evaluate their efficacy alone and in combination. Antimicrobial solutions tested against each organism included each agent alone at the MBEC, double combinations at the FBEC, and triple combinations ranging from 5 to 20% ethanol, 2.5-5 µg/mL chlorhexidine HCl and 1- 3% tetrasodium EDTA. Following treatment, pegs were washed twice with sterile PBS, and the biofilm cells were dislodged into recovery medium and enumerated as described above.
The method for rapid biofilm eradication ability of test antimicrobials alone and in combination against 48-h-old biofilms within two h exposure time included (1) choosing different concentrations of test antimicrobials to assess their potency in eradicating preformed biofilms of study organisms within two h. Then (2) the quantitative recovery from biofilms following exposure to the antimicrobial solutions for bacterial strains (FIGS. 6A-6C) and fungal strains (FIG. 7) was evaluated.

[8] = tested on: MRSA ON184; test: Checkerboard titration, FICI; type: cell-based, Staphylococcus aureus
Description: as §2

[9] = tested on: C. albicans ON47; test: Checkerboard titration, FICI; type: cell-based, Candida albicans
Description: as §2

[10] = tested on: S. epidermidis SK9; test: Checkerboard titration, FMCI; type: cell-based, Staphylococcus epidermidis
Description: as §1, §2

[11] = tested on: Escherichia coli ON29; test: Checkerboard titration, FMCI; type: cell-based; details: tetrasodium EDTA + chlorhexidine HCl; E. coli ON29
Description: as §1, §2

[12] = tested on: Proteus mirabilis ON153; test: Checkerboard titration, FMCI; type: cell-based; details: P. mirabilis ON153
Description: as §1, §2

[13] = tested on: Serratia marcescens SK2; test: Checkerboard titration, FMCI; type: cell-based; details: S. marcescens SK2
Description: as §1, §2

[14] = tested on: Staphylococcus aureus ON89; test: Checkerboard titration, FMCI; type: cell-based; details: S. aureus ON89
Description: as §1, §2

[15] = tested on: Candida albicans SK4b; test: Checkerboard titration, FMCI; type: cell-based; details: C. albicans SK4b
Description: as §1, §2

[16] = tested on: Stenotrophomonas maltophilia ON17; test: Checkerboard titration, FMCI; type: cell-based; details: S. maltophilia ON17
Description: as §1, §2

[17] = tested on: Pseudomonas aeruginosa SK1; test: Checkerboard titration, FMCI; type: cell-based; details: tetrasodium EDTA + chlorhexidine HCl; P. aeruginosa SK1
Description: as §1, §2

[18] = tested on: Staphylococcus epidermidis ON170; test: Checkerboard titration, FMCI; type: cell-based; details: S. epidermidis ON170
Description: as §1, §2

[19] = tested on: Escherichia coli ON29; test: Checkerboard titration, FICI; type: cell-based; details: tetrasodium EDTA + chlorhexidine HCl; E. coli ON29
Description: as §2

[20] = tested on: Proteus mirabilis ON153; test: Checkerboard titration, FICI; type: cell-based; details: P. mirabilis ON153
Description: as §2

[21] = tested on: Serratia marcescens SK2; test: Checkerboard titration, FICI; type: cell-based; details: tetrasodium EDTA + chlorhexidine HCl; S. marcescens SK2
Description: as §2

[22] = tested on: Staphylococcus aureus ON89; test: Checkerboard titration, FICI; type: cell-based; details: S. aureus ON89
Description: as §2

[23] = tested on: Candida albicans SK4b; test: Checkerboard titration, FICI; type: cell-based; details: C. albicans SK4b
Description: as §2

[24] = tested on: Stenotrophomonas maltophilia ON17; test: Checkerboard titration, FICI; type: cell-based; details: S. maltophilia ON17
Description: as §2

[25] = tested on: Pseudomonas aeruginosa SK1; test: Checkerboard titration, FICI; type: cell-based; details: tetrasodium EDTA + chlorhexidine HCl; P. aeruginosa SK1
Description: as §2

[26] = tested on: Staphylococcus epidermidis ON170; test: Checkerboard titration, FICI; type: cell-based; details: S. epidermidis ON170
Description: as §2

[27] = tested on: C. albicans ON47 biofilm; test: FBEC index, checkerboard dilution on biofilms; type: cell-based, Candida albicans; details: tetrasodium EDTA + ethanol
Description: (§3) In step (4), microtiter plates are incubated at 37° C. for 24 h. then (6), after incubation, the bacterial and fungal cells were dislodged from the pegs into the recovery medium described above.
(§4) Three 10-µL aliquots, for a total of 30 µL from each well of recovery medium, were spotted on MH agar plates and incubated for 24 h at 37° C. […] The FBEC determination is a modification of the FICI.

[28] = tested on: Staphylococcus epidermidis SK9 biofilm; test: FBEC index, checkerboard dilution on biofilms; type: cell-based; details: tetrasodium EDTA + ethanol; S. epidermidis SK9 biofilm
Description: as §3, §4

[29] = tested on: Staphylococcus aureus ON89 biofilm; test: FBEC index, checkerboard dilution on biofilms; type: cell-based; details: tetrasodium EDTA + ethanol; S. aureus ON89 biofilm
Description: as §3, §4

[30] = tested on: MRSA ON184 biofilm; test: FBEC index, checkerboard dilution on biofilms; type: cell-based, Staphylococcus aureus; details: tetrasodium EDTA + ethanol
Description: as §3, §4

[31] = tested on: Escherichia coli SK2 biofilm; test: FBEC index, checkerboard dilution on biofilms; type: cell-based; details: tetrasodium EDTA + ethanol; E. coli SK2 biofilm
Description: as §3, §4

[32] = tested on: Candida albicans SK4b biofilm; test: FBEC index, checkerboard dilution on biofilms; type: cell-based; details: tetrasodium EDTA + ethanol; C. albicans SK4b biofilm
Description: as §3, §4

[33] = tetrasodium EDTA + chlorhexidine HCl

[H]/N=C(\N/C(=N/[H])NCCCCCCNC(=N)NC(=N)Nc1ccc(Cl)cc1)Nc1ccc(Cl)cc1 [Chlorhexidine HCl, chlorhexidine HCl]
Concentration in combination giving FMCI [1, 33]: 1.6 µg/mL | Concentration in combination giving FMCI [2, 33]: 0.4 µg/mL | Concentration alone able to eradicate all established biofilms [3]: 100 µg/mL | Concentration in combination giving FMCI [4]: 0.2 µg/mL | Concentration in combination giving FICI [5]: 0.1 µg/mL | Concentration in combination giving FICI [6, 33]: 0.025 µg/mL | Eradication of preformed biofilms [7]: failed to eradicate | Concentration in combination giving FICI [8, 33]: 0.2 µg/mL | Concentration in combination giving FICI [9, 33]: 0.8 µg/mL | Concentration in combination giving FMCI [10, 33]: 0.4 µg/mL | Concentration in combination giving FMCI [11]: 0.2 µg/mL | Concentration in combination giving FMCI [12, 33]: 1.6 µg/mL | Concentration in combination giving FMCI [13, 33]: 1.6 µg/mL | Concentration in combination giving FMCI [14, 33]: 0.2 µg/mL | Concentration in combination giving FMCI [15, 33]: 0.8 µg/mL | Concentration in combination giving FMCI [16, 33]: 0.4 µg/mL | Concentration in combination giving FMCI [17]: 1.6 µg/mL | Concentration in combination giving FMCI [18, 33]: 0.4 µg/mL | Concentration in combination giving FICI [19]: 0.2 µg/mL | Concentration in combination giving FICI [20, 33]: 0.8 µg/mL | Concentration in combination giving FICI [21]: 1.5 µg/mL | Concentration in combination giving FICI [22, 33]: 0.1 µg/mL | Concentration in combination giving FICI [23, 33]: 0.8 µg/mL | Concentration in combination giving FICI [24, 33]: 0.2 µg/mL | Concentration in combination giving FICI [25]: 0.8 µg/mL | Concentration in combination giving FICI [26, 33]: 0.05 µg/mL

CCO [Ethanol, ethanol]
Concentration in combination giving FMCI ([1]; tetrasodium EDTA + ethanol): 3.125 % w/v | Concentration in combination giving FMCI ([2]; tetrasodium EDTA + ethanol): 3.125 % w/v | Concentration alone able to eradicate all established biofilms [3]: 5% | FBEC (concentration in combination) [27]: 1.6 % w/v | FBEC (concentration in combination) [28]: 1.6 % w/v | FBEC (concentration in combination) [29]: 0.8 % w/v | Concentration in combination giving FICI ([6]; tetrasodium EDTA + ethanol): 0.4 % w/v | Eradication of preformed biofilms [7]: failed to eradicate | Concentration in combination giving FICI ([8]; tetrasodium EDTA + ethanol): 0.4 % w/v | Concentration in combination giving FICI ([9]; tetrasodium EDTA + ethanol): 0.4 % w/v | FBEC (concentration in combination) [30]: 1.6 % w/v | Concentration in combination giving FMCI ([10]; tetrasodium EDTA + ethanol): 3.125 % w/v | FBEC (concentration in combination) [31]: 1.6 % w/v | Concentration in combination giving FMCI ([12]; tetrasodium EDTA + ethanol): 6.25 % w/v | Concentration in combination giving FMCI ([13]; tetrasodium EDTA + ethanol): 6.25 % w/v | Concentration in combination giving FMCI ([14]; tetrasodium EDTA + ethanol): 3.125 % w/v | Concentration in combination giving FMCI ([15]; tetrasodium EDTA + ethanol): 3.125 % w/v | Concentration in combination giving FMCI ([16]; tetrasodium EDTA + ethanol): 1.6 % w/v | Concentration in combination giving FMCI ([18]; tetrasodium EDTA + ethanol): 1.6 % w/v | FBEC (concentration in combination) [32]: 1.6 % w/v | Concentration in combination giving FICI ([20]; tetrasodium EDTA + ethanol): 1.6 % w/v | Concentration in combination giving FICI ([22]; tetrasodium EDTA + ethanol): 0.4 % w/v | Concentration in combination giving FICI ([23]; tetrasodium EDTA + ethanol): 1.6 % w/v | Concentration in combination giving FICI ([24]; tetrasodium EDTA + ethanol): 0.4 % w/v | Concentration in combination giving FICI ([26]; tetrasodium EDTA + ethanol): 0.4 % w/v
